Columns and labels:
[1] = molecular target: T1, RDM15 Tudor domain (Arabidopsis thaliana, UniProt Q8GUP3); experiment: Isothermal titration calorimetry (ITC), RDM15 Tudor domain (WT); format: binding; settings: compared with H3K4me0, H3K4me2 and H3K4me3
T1 construct: hexahistidine-yeast Sumo (cleaved yes); made in house; host or cells: E. coli BL21(DE3)
T1 sequence (Q8GUP3 599-663): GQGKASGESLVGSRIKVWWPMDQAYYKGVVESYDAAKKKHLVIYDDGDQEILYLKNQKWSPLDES
Description: ITC binding was measured using a Microcal PEAQ-ITC instrument (Malvern). The purified proteins were dialyzed against a buffer containing 100 mM NaCl, 20 mM HEPES, pH 7.0, and 2 mM β-mercaptoethanol and were diluted to a concentration of about 0.8–0.12 mM. The peptide was dissolved in the same buffer with a concentration of about 1.0–1.5 mM. All of the titrations were performed at 20 °C. The data were analyzed using the Origin 7.0 program.

[2] = test system: mutated RDM15 (W616A/Y623A/D643A/D645A); experiment: Co-immunoprecipitation of H3K4me1 with mutated RDM15, western blot; format: binding, Arabidopsis; settings: mutated RDM15-3xMYC/rdm15-3 plants, anti-MYC IP
Text: We expressed the mutated RDM15 (W616A/Y623A/D643A/D645A) incapable of binding to H3K4me1 in rdm15-3 mutant plants, generating mutated RDM15-3xMYC/rdm15-3 plants.
(§1) H3K4me1 mark. a. Histone peptide array assay showing the binding preference of RDM15 to H3K4me1. Error bar represents s.d. (n=3 independent experiments). Data are presented as mean values +/- SD and the dots are the corresponding data points. b. ITC binding curves between the RDM15 tudor domain and H3K4me1 and H4K20me1 peptides indicate that H3K4me1 is the optimal binding partner for […]
(§2) The RDM15-3xFLAG/rdm15-3 and mutated
(§3) RDM15-3xMYC/rdm15-3 plants were used to perform protein immunoprecipitation with anti-FLAG and anti-MYC antibodies, respectively, and then anti-H3K4me1 antibody was used to detect H3K4me1 . d. Methylation specific PCR results showing the methylation levels at several RDM15 -dependent RdDM loci. McrBC, an enzyme cleaving methylated DNA, was used to digest genomic DNA from different pla nts with two biological replicates. Stronger PCR signal represent s lower methylation level. RDM15-3xFLAG rescued the hypomethylation phenotype in rdm15-3, however, the Mutated RDM15-3xMYC didn’t rescue the methylation phenotype .
We thank the reviewer for their comments. […]
(§4) Moreover, the H3K4me1 mark has been previously detected by ChIP-seq at whole-genome level in a previous study (Inagaki et al., EMBO J., 2017). […]

[3] = test system: RDM15; experiment: Co-immunoprecipitation of H3K4me1 with wild-type RDM15, western blot; format: binding, Arabidopsis; settings: wild-type RDM15 (RDM15-3xFLAG/rdm15-3 plants), anti-FLAG IP
Text: as §1, §2, §3
We thank the reviewer for their comments. We will response the comments in the following with our response highlighted in red.
The authors have fully addressed my concerns.I think this paper meets the standard of a Nature […]
as §4

[4] = molecular target: T1, RDM15 Tudor domain; experiment: Histone peptide array (MODified Histone Peptide Array), GST-fused RDM15; format: binding; settings: several hundred combinations of histone marks
Description: Histone peptide array assay was performed using the MODified Histone Peptide Array kit (Active Motif) according to the manufacturer’s instructions. In brief, the slide was first blocked for 2 h at room temperature. After it was washed three times with TBST buffer [10 mM Tris·HCl (pH 7.5), 30 mM NaCl, and 0.05% Tween-20], the slide was incubated overnight with […] of GST-fused purified RDM15 protein at 4 °C in […] of binding buffer [50 mM Hepes (pH 8.0), 150 mM NaCl, 2 mM DTT, and 0.05% Nonidet P-40]. After it was washed three additional times with TBST buffer, the slide was incubated with anti-GST primary antibody at 1/3000 dilution and secondary antibody at 1/5000 dilution in TBST buffer for 1 h at room temperature, respectively. After the washing, the slide was visualized using Lumi-light ECL substrate (Roche). The intensity of the blotted slide was analyzed according to the instructions of the analysis software of the MODified Histone Peptide Array.

CNCCCC[C@H](NC(=O)[C@@H](NC(=O)[C@H](CCCNC(=N)N)NC(=O)[C@H](C)N)[C@@H](C)O)C(=O)N[C@@H](CCC(N)=O)C(=O)N[C@H](C(=O)N[C@@H](C)C(=O)N[C@@H](CCCNC(=N)N)C(=O)N[C@@H](CCCCN)C(=O)N[C@@H](CO)C(=O)N[C@H](C(=O)NCC(=O)NCC(=O)N[C@@H](CCCCN)C(=O)N[C@@H](C)C(=O)O)[C@@H](C)O)[C@@H](C)O [H3K4me1]
Binding in words (ITC) [1]: bound much more strongly to the monomethylation state of H3K4 | Co-immunoprecipitation of H3K4me1 [2]: not by mutated RDM15 | Co-immunoprecipitation of H3K4me1 [3]: co-immunoprecipitated by wild-type RDM15 | Binding in words (histone peptide array) [4]: significant binding
